Source: article PMC6108126, “Purification, characterization and immunogenicity assessment of glutaminase free L-asparaginase from Streptomyces brollosae NEAE-115” (BMC Pharmacology & Toxicology, 2018)

Key:
[1] = system: T1, L-asparaginase from Streptomyces brollosae NEAE-115; details: 0.05 M Tris-HCl, pH 8.6, 37 °C (standard assay); 1-10 mM substrate
T1 construct: gene L-asparagine amidohydrolase

[2] = substrate: NC(=O)C[C@H](N)C(=O)O; assay: purified protein; details: 0.05 M Tris-HCl, pH 8.6, 37 °C (standard assay), 1-10 mM substrate

Molecule	Km [1] [µM]	Km [2] [µM]
NC(=O)C[C@H](N)C(=O)O [L-asparagine]	2140	
commercially available L-asparaginase from E. coli (Escherichia coli K-12) (protein) LPNITILATGGTIAGGGDSATKSNYTVGKVGVENLVNAVPQLKDIANVKGEQVVNIGSQDMNDNVWLTLAKKINTDCDKTDGFVITHGTDTMEETAYFLDLTVKCDKPVVMVGAMRPSTSMSADGPFNLYNAVVTAADKASANRGVLVVMNDTVLDGRDVTKTNTTDVATFKSVNYGPLGYIHNGKIDYQRTPARKHTSDTPFDVSKLNELPKVGIVYNYANASDLPAKALVDAGYDGIVSAGVGNGNLYKSVFDTLATAAKTGTAVVRSSRVPTGATTQDAEVDDAKYGFVASGTLNPQKARVLLQLALTQTKDPQQIQQIFNQY		176
